{
  "source": "patent US10668032B2",
  "about": "(SyneuRx International (Taiwan) Corp., priority 2016, dated 2020)",
  "key": {"[1]": {"assay": "Plasma pharmacokinetics of lithium after oral gavage (ICP-MS)", "method": "Male Sprague-Dawley rats weighed between 240-260 g were randomly assigned to two groups. […] These two regimens would provide the same molarity of lithium and benzoate. The chemicals were dissolved in PBS, and then administrated by oral gavage. All rats were fasted overnight with free access to water before experiments. After single dose administration of drugs, the blood samples were then collected at the time point 0, 5, 15, 30, 60, 90, 120, 240, 360, 720, and 1440 min.\nBlood samples were collected in tubes coated with sodium heparin from jugular vein catheterized rats. Then, the blood samples were kept on ice and centrifuged at 2,500×g for 15 min at 4° C. The supernatant was collected and then kept frozen at −80° C. until further processing."}, "[2]": {"system": "GFAP positive cells in cortical culture", "assay": "GFAP immunocytochemistry in cortical culture after Aβ25-35", "type": "cell-based, rat", "method": "Cells were fixed in 4% PFA and washed in PBS, blocked with 2% bovine serum albumin (BSA) and 0.03% Triton X-100 in PBS, and then incubated with mouse monoclonal antibody against microtubule-associated protein-2 (MAP-2) (Cat. No. MAB378, 1:150, CHEMICON International, Inc., Temecula, Calif., USA); rabbit polyclonal antibody against GFAP (Cat. No. Z0334, 1:600, DakoCytomation Denmark A/S, Denmark). The goat anti-mouse IgG Alexa Fluor-conjugated secondary antibodies (1:500; Cat No. A11003, Thermo Scientific); anti-rabbit IgG Alexa Fluor-conjugated secondary antibodies (1:500; Thermo Scientific) were applied respectively to recognize the primary antibodies of the MAP-2 and GFAP.\nThe coverslips were observed under a digital imaging fluorescence microscope (Olympus BX61; Japan) equipped with filter sets to detect the corresponding fluorescence signals.\nGlial fibrillary acidic protein (GFAP) is an intermediate filament protein expressed by cells in the CNS, and is also recognized as an astrocyte maturation marker. Upregulation of GFAP, indicating gliosis, is commonly observed after CNS lesion; therefore, expression of GFAP could be useful to understand the state of neurological diseases."}, "[3]": {"system": "MPTP-induced C57BL/6J mice", "assay": "Pole test in MPTP-induced mice", "type": "in vivo, mouse", "conditions": "256 mg/kg body weight/day after 5 weeks of MPTP 30 mg/kg/day i.p.", "method": "Animals were housed and kept in the same condition as previous described. Male C57BL/6J mice (age: 12 weeks) were randomly assigned to 2 groups—vehicle control and MPTP-induced groups. The mice of MPTP-induced group were intraperitoneally injected with MPTP (30 mg/kg body weight/day) for five weeks, while those in the vehicle control group received injections of the same volume of saline. After 5 weeks of MPTP exposure, pole test was performed to elucidate the effect of MPTP-induced disability.\nPole test was used to measure the degree of bradykinesia, a typical symptom of parkinsonism. The animals were positioned head upward near the top of a rough-surfaced pole (1 cm in diameter and 60 cm in height). The time taken until they turned downward (Tturn) and the total time taken to climb down to the floor (TLA), were recorded. When the mouse was not able to turn downward, Tturn was taken as 60 seconds (default value)."}, "SH-SY5Y cells": {"system": "SH-SY5Y cells", "assay": "MPTP toxicity in SH-SY5Y cells, MTT assay", "type": "cell-based, human", "method": "SH-SY5Y, the human neuroblastoma cell line, was incubated with MPTP (750 μM) for 24 hrs."}, "primary cortical cells": {"system": "primary cortical cells", "assay": "Oxygen-glucose deprivation (OGD) of primary cortical culture, MTT assay", "type": "cell-based, rat", "description": "The oxygen-glucose deprivation (OGD) is a common and well-validated cell model used for brain injuries like stroke-related studies. […] To induce the OGD model, the Neurobasal medium supplemented with B27 (GIBCO/Life Technologies of Thermo Fisher Scientific Corporation) was removed from the cultures, and then rinsed with Neurobasal-A Medium (no D-glucose and sodium pyruvate [GIBCO/Life Technologies of Thermo Fisher Scientific Corporation]). The cultured cells were maintained in a humidified incubator at 37° C. with 5% CO2 for 1 h to consume the resting glucose and pyruvate. The cultures were then subjected to an anaerobic environment of 95% N2-5% CO2 for 4 hours. Oxygen concentration was monitored by an oxygen analyzer (Proox-110, Demott St, Lacona, N.Y., USA), as maintained at approximately 1.0% throughout the experiment."}},
  "data": [
    {"smiles": "O=C([O-])c1ccccc1.[Li+]", "note": "[lithium benzoate]", "values": [
      {"measurement": "Tmax of lithium", "setting": "[1]; rat, single oral gavage, NaBen 287.9 mg/kg + Li2CO3 74.2 mg/kg or LiBen 255.3 mg/kg", "result": 2.208, "unit": "h"},
      {"measurement": "Cmax", "setting": "[1]; read-out: Cmax of lithium, rat, single oral gavage, NaBen 287.9 mg/kg + Li2CO3 74.2 mg/kg or LiBen 255.3 mg/kg", "result": 1720, "unit": "µM"},
      {"measurement": "reduction of GFAP positive cells compared with LiCl", "setting": "[2]; LiBen 0.5 mM vs LiCl 1 mM", "result": "better effect than LiCl"},
      {"measurement": "number of GFAP positive cells after Aβ25-35 exposure", "setting": "[2]; post-treatment 0.5 mM", "result": "significantly reduced"},
      {"measurement": "total time for turning down (TLA), pole test", "setting": "[3]", "result": "significantly reduced"},
      {"measurement": "turning time (Tturn), pole test", "setting": "[3]", "result": "significantly reduced"},
      {"measurement": "cell survival improvement compared with sodium benzoate and lithium chloride", "setting": "SH-SY5Y cells; 1 mM each, MPTP 750 μM", "result": "better performance of cell survival improvement than the other two groups"},
      {"measurement": "dose at which the protective effect was most obvious", "setting": "SH-SY5Y cells; 0.3, 1, 3 mM tested, MPTP", "result": 1, "unit": "mM"},
      {"measurement": "cell survival under oxygen-glucose deprivation", "setting": "primary cortical cells; overall treatment 53 hours (pre-treatment 24 h, habituation 1 h, OGD 4 h, reperfusion 24 h), 0.3, 1, 3, 5 mM", "result": "significantly protected"},
      {"measurement": "cell survival under oxygen-glucose deprivation", "setting": "primary cortical cells; post-treatment for 48 hours reperfusion", "result": "cell protection effect at all dose levels"}
    ]}
  ]
}
